Source: ChEMBL document CHEMBL1799910, “Optimization of 1,2,3,4-tetrahydroacridin-9(10H)-ones as antimalarials utilizing structure-activity and structure-property relationships” (J Med Chem, 2011)
In brackets after ≈: the same amount, converted by molar mass.

Assays:
[1] = test system: J774; assay: Cytotoxicity against mouse J774 cells after 72 hrs by Cell titer 96 aqueous one solution cell proliferation assay; type: cell-based; details: J774, 72 h
[2] = Permeability of the compound by PAMPA method at pH 7.4; type: ADME; details: read-out: permeability
[3] = Partition coefficient, log D of the compound at pH 7.4 by HPLC analysis; details: octanol/water
[4] = Aqueous solubility of compound at pH 7.4 by HPLC analysis; details: buffer
[5] = Cytotoxicity index, ratio of EC50 for mouse J774 cells to EC50 for chloroquine, mefloquine, pyrimethamine and atovaquone-resistant Plasmodium falciparum TM90-C2B; type: cell-based; details: read-out: Ratio EC50
[6] = test system: Plasmodium falciparum; assay: Antimalarial activity against chloroquine, mefloquine, pyrimethamine and atovaquone-resistant Plasmodium falciparum TM90-C2B infected in human A positive erythrocytes after 72 hrs by SYBR Green I assay; type: functional, organism-based
[7] = test system: Plasmodium falciparum; assay: Resistance index, ratio of EC50 for chloroquine, mefloquine, pyrimethamine and atovaquone-resistant Plasmodium falciparum TM90-C2B to EC50 for chloroquine and pyrimethamine-resistant Plasmodium falciparum W2; type: functional
[8] = test system: Plasmodium falciparum; assay: Antimalarial activity against chloroquine and pyrimethamine-resistant Plasmodium falciparum W2 infected in human A positive erythrocytes after 72 hrs by SYBR Green I assay; type: functional, organism-based; details: W2, 72 h

SMILES	EC50 [1] [nM]	Papp [2] [×10⁻⁶ cm/s]	logD [3]	solubility [4] [µM]	selectivity ratio [5]	EC50 [6] [nM]	Ratio EC50 [7]	EC50 [8] [nM]
O=c1c2c([nH]c3ccc(Cl)cc13)CCCC2	> 2000	57	2	4 (≈ 0.935 µg/mL)	≥ 100	63.4	0.63	99.4
O=c1c2c([nH]c3cccc(Cl)c13)CCCC2	> 5000	47	1.8	99 (≈ 23.1 µg/mL)	≥ 100	447	1.22	368
CC1(C)CCc2[nH]c3ccccc3c(=O)c2C1	> 20000	43	1.8	35 (≈ 7.96 µg/mL)	≥ 100	295	0.7	421
COc1cccc2c(=O)c3c([nH]c12)CCC(C)(C)C3	> 40000	95	2.4	91 (≈ 23.4 µg/mL)	≥ 100	620	0.31	1990
COc1ccc2[nH]c3c(c(=O)c2c1)CC(C)(C)CC3	> 20000	73	2	38 (≈ 9.78 µg/mL)	≥ 100	> 9720	>1.16	8400
COc1cccc2[nH]c3c(c(=O)c12)CC(C)(C)CC3	> 20000	54	1.9	83 (≈ 21.4 µg/mL)	≥ 100	3500	0.67	5240
Cc1cccc2c(=O)c3c([nH]c12)CCC(C)(C)C3	> 40000	90	2.3	38 (≈ 9.17 µg/mL)	≥ 100	531	0.67	791
Cc1ccc2c(=O)c3c([nH]c2c1)CCC(C)(C)C3	> 40000	82	2.4	75 (≈ 18.1 µg/mL)	≥ 100	1980	11.9	166
Cc1ccc2[nH]c3c(c(=O)c2c1)CC(C)(C)CC3	> 40000	84	2.4	52 (≈ 12.5 µg/mL)	≥ 100	2180	4.6	474
Cc1cccc2[nH]c3c(c(=O)c12)CC(C)(C)CC3	> 40000	269	2.7	45 (≈ 10.9 µg/mL)	≥ 100	4130	1.37	3020
CC1(C)CCc2[nH]c3c(Cl)cccc3c(=O)c2C1	> 20000	427	2.9	62 (≈ 16.2 µg/mL)	≥ 100	4730	1.01	4670
CC1(C)CCc2[nH]c3cc(Cl)ccc3c(=O)c2C1	> 40000	62	2.8	1 (≈ 0.262 µg/mL)	≥ 100	829	3.45	240
CC1(C)CCc2[nH]c3ccc(Cl)cc3c(=O)c2C1	> 40000	63	2.6	1 (≈ 0.262 µg/mL)	≥ 100	118	0.46	256
CC1(C)CCc2[nH]c3cccc(Cl)c3c(=O)c2C1	> 40000	117	2.4	23 (≈ 6.02 µg/mL)	≥ 100	599	1.61	373
CC1(C)CCc2c([nH]c3ccccc3c2=O)C1	> 40000	43	1.9	64 (≈ 14.5 µg/mL)	≥ 100	335	0.18	1870
COc1cccc2c(=O)c3c([nH]c12)CC(C)(C)CC3	> 20000	114	2.4	91 (≈ 23.4 µg/mL)	≥ 100	2490	0.38	6540
COc1cccc2[nH]c3c(c(=O)c12)CCC(C)(C)C3	> 20000	43	1.7	64 (≈ 16.5 µg/mL)	≥ 100	4100	<0.42	> 9720
Cc1cccc2c(=O)c3c([nH]c12)CC(C)(C)CC3	> 40000	88	2.3	60 (≈ 14.5 µg/mL)	≥ 100	1750	0.74	2370
Cc1ccc2c(=O)c3c([nH]c2c1)CC(C)(C)CC3	> 10000	53	2.49	17 (≈ 4.1 µg/mL)	≥ 100	965	0.66	1460
Cc1ccc2[nH]c3c(c(=O)c2c1)CCC(C)(C)C3	> 2000	78	2.4	4 (≈ 0.965 µg/mL)	≥ 100	319	0.54	587
CC1(C)CCc2c([nH]c3c(Cl)cccc3c2=O)C1	> 20000	407	3	20 (≈ 5.24 µg/mL)	≥ 100	> 9550	>1.42	6700
CC1(C)CCc2c([nH]c3ccc(Cl)cc3c2=O)C1	> 1000	96	2.7	2 (≈ 0.524 µg/mL)	≥ 100	538	2.5	215
CC1(C)CCc2c([nH]c3cccc(Cl)c3c2=O)C1	> 5000	103	2.5	6 (≈ 1.57 µg/mL)	≥ 100	5330	1.78	2990
Cc1cccc2[nH]c3c(c(=O)c12)CCCC3	> 20000	87	2.1	99 (≈ 21.1 µg/mL)	≥ 100	4570	0.73	6250
O=c1c2c([nH]c3c(Cl)cccc13)CCCC2	> 20000	107	2.2	107 (≈ 25 µg/mL)	≥ 100	> 9000	>7.9	1350
O=c1c2c([nH]c3cc(Cl)ccc13)CCCC2	> 10000	75	2.2	15 (≈ 3.51 µg/mL)	≥ 100	122	0.89	137
